Source: ChEMBL document CHEMBL2073958, “Active transport of imatinib into and out of cells: implications for drug resistance” (Blood, 2004)

Target: ATP-dependent translocase ABCB1 (Homo sapiens, UniProt P08183)
Assay: TP_TRANSPORTER: transepithelial transport in MDR1-transfected MDCKII cells
Assay type: functional, cell-based
Settings: dog, mdck-ii

Chain of ATP-dependent translocase ABCB1 (P08183 whole entry): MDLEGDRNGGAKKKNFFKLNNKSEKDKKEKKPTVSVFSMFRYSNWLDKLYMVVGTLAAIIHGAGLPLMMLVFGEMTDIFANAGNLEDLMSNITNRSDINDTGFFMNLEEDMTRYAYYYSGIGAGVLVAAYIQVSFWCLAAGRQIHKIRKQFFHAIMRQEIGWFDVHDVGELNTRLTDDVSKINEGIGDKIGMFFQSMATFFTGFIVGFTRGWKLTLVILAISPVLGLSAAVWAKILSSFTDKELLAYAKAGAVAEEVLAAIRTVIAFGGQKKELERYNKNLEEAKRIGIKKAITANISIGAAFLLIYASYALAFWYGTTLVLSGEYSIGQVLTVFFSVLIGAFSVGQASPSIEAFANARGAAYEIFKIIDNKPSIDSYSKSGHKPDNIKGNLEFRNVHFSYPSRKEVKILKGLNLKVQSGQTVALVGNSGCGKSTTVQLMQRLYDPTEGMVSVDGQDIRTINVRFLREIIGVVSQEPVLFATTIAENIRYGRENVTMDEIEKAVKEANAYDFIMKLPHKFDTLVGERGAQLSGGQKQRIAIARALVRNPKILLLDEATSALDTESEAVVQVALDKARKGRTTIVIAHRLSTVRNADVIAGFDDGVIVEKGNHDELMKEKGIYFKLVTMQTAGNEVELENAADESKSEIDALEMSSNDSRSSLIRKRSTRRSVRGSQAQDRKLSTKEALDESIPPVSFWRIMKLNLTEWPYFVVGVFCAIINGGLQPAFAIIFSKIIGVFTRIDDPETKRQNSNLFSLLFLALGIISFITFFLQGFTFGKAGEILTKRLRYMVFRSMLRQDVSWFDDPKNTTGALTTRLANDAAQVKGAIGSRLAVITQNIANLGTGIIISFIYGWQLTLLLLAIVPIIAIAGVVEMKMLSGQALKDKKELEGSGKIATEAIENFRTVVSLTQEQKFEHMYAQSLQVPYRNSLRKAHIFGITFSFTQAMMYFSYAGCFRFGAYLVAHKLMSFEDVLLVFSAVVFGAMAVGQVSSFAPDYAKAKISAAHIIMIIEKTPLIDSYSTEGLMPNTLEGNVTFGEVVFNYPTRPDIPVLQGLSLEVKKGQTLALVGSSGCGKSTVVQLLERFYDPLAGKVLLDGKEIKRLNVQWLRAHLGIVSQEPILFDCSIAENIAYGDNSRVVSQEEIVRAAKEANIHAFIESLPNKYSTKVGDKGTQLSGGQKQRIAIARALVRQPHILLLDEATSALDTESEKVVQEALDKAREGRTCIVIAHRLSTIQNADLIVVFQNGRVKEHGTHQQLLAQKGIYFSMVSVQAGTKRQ

Activity: substrate [+]
Compound: Cc1ccc(NC(=O)c2ccc(CN3CCN(C)CC3)cc2)cc1Nc1nccc(-c2cccnc2)n1 [IMATINIB]
